Data taken from PubChem BioAssay AID192 (DTP/NCI, 2004).
Several values for one entry are separate records, joined by “and”; a condition that tells them apart may be missing. Equal values may be shown once. Toxic doses and inconclusive results are not listed.

Tested on: BDF1 mice, B16 melanoma ip, median survival T/C
Assay: NCI In Vivo Anticancer Drug Screen. Data for tumor model B16 Melanoma (intraperitoneal) in B6D2F1 (BDF1) mice
Settings: endpoint: median survival time, higher = longer survival
Outline: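 Each result divides a survival or tumor-size measurement in the compound-treated group by the same measurement in the vehicle group.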

[1] = dose: 6.25 mg/kg/injection, schedule: Q01DX009 (ip), vehicle: saline with Tween-80
[2] = dose: 12.5 mg/kg/injection, schedule: Q01DX009 (ip), vehicle: saline with Tween-80
[3] = dose: 25.0 mg/kg/injection, schedule: Q01DX009 (ip), vehicle: saline with Tween-80
[4] = dose: 50.0 mg/kg/injection, schedule: Q01DX009 (ip), vehicle: Klucel (hydroxypropylcellulose) (HPC)
[5] = dose: 100.0 mg/kg/injection, schedule: Q01DX009 (ip), vehicle: Klucel (hydroxypropylcellulose) (HPC)
[6] = dose: 200.0 mg/kg/injection, schedule: Q01DX009 (ip), vehicle: Klucel (hydroxypropylcellulose) (HPC)
[7] = dose: 25.0 mg/kg/injection, schedule: Q01DX009 (ip), vehicle: Klucel (hydroxypropylcellulose) (HPC)
[8] = dose: 1.56 mg/kg/injection, schedule: Q01DX009 (ip), vehicle: saline
[9] = dose: 3.12 mg/kg/injection, schedule: Q01DX009 (ip), vehicle: saline
[10] = dose: 6.25 mg/kg/injection, schedule: Q01DX009 (ip), vehicle: saline
[11] = dose: 12.5 mg/kg/injection, schedule: Q01DX009 (ip), vehicle: saline
[12] = dose: 25.0 mg/kg/injection, schedule: Q01DX009 (ip), vehicle: saline
[13] = dose: 50.0 mg/kg/injection, schedule: Q01DX009 (ip), vehicle: saline with Tween-80
[14] = dose: 100.0 mg/kg/injection, schedule: Q01DX009 (ip), vehicle: saline with Tween-80
[15] = dose: 200.0 mg/kg/injection, schedule: Q01DX009 (ip), vehicle: saline with Tween-80
[16] = dose: 50.0 mg/kg/injection, schedule: Q01DX009 (ip), vehicle: saline
[17] = dose: 6.25 mg/kg/injection, schedule: Q01DX009 (ip), vehicle: Klucel (hydroxypropylcellulose) (HPC)
[18] = dose: 12.5 mg/kg/injection, schedule: Q01DX009 (ip), vehicle: Klucel (hydroxypropylcellulose) (HPC)

## S=P(NCCS)(N1CC1)N1CC1
[1]
  T/C: 95 % of control
[2]
  T/C: 96 % of control
[3]
  T/C: 98 % of control
dose: 100.0 mg/kg/injection, schedule: Q04DX003 (ip), vehicle: saline with Tween-80
  T/C: 105 % of control
dose: 200.0 mg/kg/injection, schedule: Q04DX003 (ip), vehicle: saline with Tween-80
  T/C: 97 % of control
dose: 400.0 mg/kg/injection, schedule: Q04DX003 (ip), vehicle: saline with Tween-80
  T/C: 95 % of control

## O=c1oc(-c2ccc3c(c2)OCO3)nc2ccccc12
[4]
  T/C: 98 % of control
[5]
  T/C: 99 % of control
[6]
  T/C: 91 % of control

## O=C(Nc1cccc(C(F)(F)F)c1)Nc1nccs1
[7]
  T/C: 93 % of control
[4]
  T/C: 95 % of control
[5]
  T/C: 100 % of control
[6]
  T/C: 101 % of control

## O=C(N/N=C\c1cc(Br)cc(Br)c1O)N/N=C/c1cc(Br)cc(Br)c1O
[1]
  T/C: 108 % of control and 120 % of control
dose: 6.25 mg/kg/injection, schedule: Q01DX009 (ip), vehicle: sodium bicarbonate
  T/C: 96 % of control
[2]
  T/C: 104 % of control
dose: 12.5 mg/kg/injection, schedule: Q01DX009 (ip), vehicle: sodium bicarbonate
  T/C: 107 % of control
dose: 25.0 mg/kg/injection, schedule: Q01DX009 (ip), vehicle: sodium bicarbonate
  T/C: 107 % of control
dose: 50.0 mg/kg/injection, schedule: Q01DX009 (ip), vehicle: sodium bicarbonate
  T/C: 107 % of control
dose: 100.0 mg/kg/injection, schedule: Q01DX009 (ip), vehicle: sodium bicarbonate
  T/C: 118 % of control
dose: 200.0 mg/kg/injection, schedule: Q01DX009 (ip), vehicle: sodium bicarbonate
  T/C: 122 % of control

## C[CH2][Sn]([CH2]C)([O]S(=O)(=O)CC12CCC(CC1=O)C2(C)C)[O]S(=O)(=O)CC12CCC(CC1=O)C2(C)C
[8]
  T/C: 100 % of control
[9]
  T/C: 108 % of control
[10]
  T/C: 115 % of control
[11]
  T/C: 100 % of control
[12]
  T/C: 96 % of control

## CCCCNC(C)[C@]1(O)Cc2c(O)c3c(c(O)c2[C@@H](OC2CC(N)C(O)C(C)O2)C1)C(=O)c1c(OC)cccc1C3=O (some centres not stated)
dose: 4.7 mg/kg/injection, schedule: Q01DX001 (ip), vehicle: water
  T/C: 185 % of control and 198 % of control
dose: 9.4 mg/kg/injection, schedule: Q01DX001 (ip), vehicle: water
  T/C: 185 % of control and 215 % of control and 270 % of control
dose: 18.8 mg/kg/injection, schedule: Q01DX001 (ip), vehicle: water
  T/C: 197 % of control and 222 % of control and 263 % of control
dose: 37.5 mg/kg/injection, schedule: Q01DX001 (ip), vehicle: water
  T/C: 106 % of control

## CC(Cl)CN(CC(C)Cl)C(=O)OCC(NC(=O)OCc1ccccc1)C(=O)OCc1ccccc1 (configuration not stated)
dose: 12.5 mg/kg/injection, schedule: Q04DX003 (ip), vehicle: Klucel (hydroxypropylcellulose) (HPC)
  T/C: 86 % of control
dose: 25.0 mg/kg/injection, schedule: Q04DX003 (ip), vehicle: Klucel (hydroxypropylcellulose) (HPC)
  T/C: 86 % of control
dose: 50.0 mg/kg/injection, schedule: Q04DX003 (ip), vehicle: Klucel (hydroxypropylcellulose) (HPC)
  T/C: 86 % of control
[5]
  T/C: 97 % of control
[6]
  T/C: 97 % of control
dose: 200.0 mg/kg/injection, schedule: Q04DX003 (ip), vehicle: Klucel (hydroxypropylcellulose) (HPC)
  T/C: 93 % of control
dose: 400.0 mg/kg/injection, schedule: Q01DX009 (ip), vehicle: Klucel (hydroxypropylcellulose) (HPC)
  T/C: 88 % of control

## CCN(CC)CCCC#CCN1CCCC1
[7]
  T/C: 100 % of control
[4]
  T/C: 93 % of control
[5]
  T/C: 93 % of control

## O=C(OC1C=CC2CCC1C2)c1ccc([N+](=O)[O-])cc1 (configuration not stated)
[13]
  T/C: 91 % of control
[14]
  T/C: 96 % of control
[15]
  T/C: 93 % of control

## CN(C)c1ncnc2c1ncn2C1OC(CO)C(N)C1O (configuration not stated)
[12]
  T/C: 111 % of control
[16]
  T/C: 118 % of control

## COc1ccc([C@@H]2c3cc4c(cc3C[C@H]3COC(=O)[C@@H]32)OCO4)cc1OC
dose: 11.0 mg/kg/injection, schedule: Q01DX009 (ip), vehicle: saline with Tween-80
  T/C: 124 % of control
dose: 22.0 mg/kg/injection, schedule: Q01DX009 (ip), vehicle: saline with Tween-80
  T/C: 111 % of control
dose: 33.0 mg/kg/injection, schedule: Q01DX009 (ip), vehicle: saline with Tween-80
  T/C: 124 % of control
dose: 67.0 mg/kg/injection, schedule: Q01DX009 (ip), vehicle: saline with Tween-80
  T/C: 113 % of control

## C/C(Cc1ccccc1)=N\[N+](C)(C)C
dose: 75.0 mg/kg/injection, schedule: Q04DX003 (ip), vehicle: saline
  T/C: 109 % of control
dose: 150.0 mg/kg/injection, schedule: Q04DX003 (ip), vehicle: saline
  T/C: 104 % of control

## CCOC(=O)c1ccc(=O)[nH]c1.[Ag]
dose: 3.13 mg/kg/injection, schedule: Q01DX009 (ip), vehicle: Klucel (hydroxypropylcellulose) (HPC)
  T/C: 108 % of control
[17]
  T/C: 100 % of control
[18]
  T/C: 91 % of control

## CC1(CCl)OCCO1
[4]
  T/C: 96 % of control
[5]
  T/C: 100 % of control
[6]
  T/C: 100 % of control

## O=C(NCCCN1CCN(CCCNC(=O)c2cccnc2)CC1)c1cccnc1
[10]
  T/C: 107 % of control
[11]
  T/C: 107 % of control
[12]
  T/C: 112 % of control
[16]
  T/C: 104 % of control
dose: 100.0 mg/kg/injection, schedule: Q01DX009 (ip), vehicle: saline
  T/C: 95 % of control

## CSc1ccc(N=Cc2ccc3c(c2)OCO3)cc1
[5]
  T/C: 90 % of control
[6]
  T/C: 88 % of control

## CC(=O)N(NC(C)C)C(C)C
[10]
  T/C: 111 % of control
[11]
  T/C: 103 % of control
[12]
  T/C: 99 % of control
[16]
  T/C: 102 % of control

## CCC/C=C/C=C\C(=O)O[C@@H]1[C@@H](C)[C@]2(O)[C@@H]3C=C(C)C(=O)[C@H]3CC(COC(C)=O)=C[C@H]2[C@@H]2C(C)(C)[C@]12OC(C)=O
dose: 0.75 mg/kg/injection, schedule: Q01DX009 (ip), vehicle: saline + alcohol
  T/C: 107 % of control
dose: 1.5 mg/kg/injection, schedule: Q01DX009 (ip), vehicle: saline + alcohol
  T/C: 105 % of control
dose: 3.0 mg/kg/injection, schedule: Q01DX009 (ip), vehicle: saline + alcohol
  T/C: 113 % of control
dose: 6.0 mg/kg/injection, schedule: Q01DX009 (ip), vehicle: saline + alcohol
  T/C: 113 % of control

## CC(=O)/C(C)=C\c1ccccc1
[14]
  T/C: 102 % of control
[15]
  T/C: 95 % of control
dose: 400.0 mg/kg/injection, schedule: Q01DX009 (ip), vehicle: saline with Tween-80
  T/C: 86 % of control

## Cc1cc(N)c2cc(NC(=O)CCCCCC(=O)Nc3ccc4nc(C)cc(N)c4c3)ccc2n1
[2]
  T/C: 90 % of control
[3]
  T/C: 98 % of control
[13]
  T/C: 110 % of control

## O=c1[nH]c(=O)n(C2OC(CO)C(O)C2O)cc1F (configuration not stated)
dose: 0.78 mg/kg/injection, schedule: Q01DX009 (ip), vehicle: saline
  T/C: 156 % of control
[8]
  T/C: 165 % of control
[9]
  T/C: 165 % of control

## COc1cc2nc3cc([N+](=O)[O-])ccc3c(Cl)c2cc1OC
[4]
  T/C: 103 % of control
[5]
  T/C: 96 % of control

## CC1(C)N=C(N)N=C(N)N1c1ccc(CCCCc2ccc(Cl)c(S(=O)(=O)F)c2)c(Cl)c1
dose: 8.0 mg/kg/injection, schedule: Q01DX009 (ip), vehicle: saline
  T/C: 105 % of control
dose: 12.0 mg/kg/injection, schedule: Q01DX009 (ip), vehicle: saline
  T/C: 114 % of control
dose: 18.0 mg/kg/injection, schedule: Q01DX009 (ip), vehicle: saline
  T/C: 118 % of control

## O=C1C(N2CC2)=C(N2CC2)C(=O)C(N2CC2)=C1N1CC1
dose: 10.0 micrograms/kg/injection, schedule: Q01DX009 (ip), vehicle: saline
  T/C: 100 % of control and 118 % of control
dose: 20.0 micrograms/kg/injection, schedule: Q01DX009 (ip), vehicle: saline
  T/C: 120 % of control

## O=C[C@@H](CO)O[C@H](C=O)n1cnc2c(=O)[nH]cnc21
dose: 37.5 mg/kg/injection, schedule: Q01DX009 (ip), vehicle: saline
  T/C: 95 % of control
dose: 75.0 mg/kg/injection, schedule: Q01DX009 (ip), vehicle: saline
  T/C: 95 % of control
dose: 150.0 mg/kg/injection, schedule: Q01DX009 (ip), vehicle: saline
  T/C: 88 % of control

## CC(=O)N1CCC2(CC1)SSC1(CCN(C(C)=O)CC1)S2
dose: 5.0 mg/kg/injection, schedule: Q01DX009 (ip), vehicle: saline with Tween-80
  T/C: 105 % of control
dose: 10.0 mg/kg/injection, schedule: Q01DX009 (ip), vehicle: saline with Tween-80
  T/C: 112 % of control

## C=C1C(=O)OC2CC1C(OC(C)=O)CC1(C)OC1CCC1(C)OC1CCC2(C)O (configuration not stated)
[17]
  T/C: 102 % of control
[18]
  T/C: 97 % of control
[7]
  T/C: 100 % of control
[4]
  T/C: 92 % of control
